Molecular target: T1, human homomeric α1 GlyR (Homo sapiens, UniProt P23415)
T1 construct: expressed in transfected cells
T1 sequence (P23415 29-457): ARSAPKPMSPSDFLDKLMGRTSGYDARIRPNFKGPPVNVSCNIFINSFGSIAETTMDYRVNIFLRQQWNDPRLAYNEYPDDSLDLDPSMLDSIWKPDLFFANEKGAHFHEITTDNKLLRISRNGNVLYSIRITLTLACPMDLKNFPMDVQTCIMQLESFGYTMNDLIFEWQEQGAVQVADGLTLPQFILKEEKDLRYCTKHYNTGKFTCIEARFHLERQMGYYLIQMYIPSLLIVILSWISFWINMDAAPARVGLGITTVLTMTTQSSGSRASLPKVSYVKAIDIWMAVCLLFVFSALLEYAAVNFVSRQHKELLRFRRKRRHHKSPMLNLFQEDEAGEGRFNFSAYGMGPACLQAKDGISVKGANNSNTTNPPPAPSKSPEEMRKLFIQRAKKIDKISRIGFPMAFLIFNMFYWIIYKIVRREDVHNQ
Experiment: Functional glycine receptor assay (FLIPR Membrane Potential Assay)
Type: cell-based
Parameters: antagonist activity at GlyR (in words): dose or concentration left out as unconfirmed
Conditions: 30 uM concentration of test compound

| inhibition of glycine responses [%] | Substance |
| --- | --- |
| 39 | 10-Benzyloxy-isoGC-6-benzoate [Compound 17] |

Same assay, conditions: 100 μM test compound; 100 μM glycine-induced response; α1 GlyR-HEK293 cells; Table 2

| Substance | % inhibition |
| --- | --- |
| 7-tert-Butylcarbamoyloxy-10-benzyloxy-GC [Compound 35] | 29% |
| 7-Methylcarbamoyloxy-10-benzyloxy-GC [Compound 34] | NI (Inhibition below 20% is characterized as no inhibition (NI)) |
| 1-(Morpholine-4-carbonyloxy)-10-benzyloxy-GC [Compound 41] | NI (Inhibition below 20% is characterized as no inhibition (NI)) |
| 7-tert-Butylcarbamoyloxy-10-(4-methoxy-benzyloxy)-GC [Compound 45] | 39% |
| 7-Methylcarbamoyloxy-10-(4-methoxy-benzyloxy)-GC [Compound 44] | NI (Inhibition below 20% is characterized as no inhibition (NI)) |
| 1-(Morpholine-4-carbonyloxy)-10-(4-methoxy-benzyloxy)-GC [Compound 51] | NI (Inhibition below 20% is characterized as no inhibition (NI)) |
| 1-tert-Butylcarbamoyloxy-10-(4-methoxy-benzyloxy)-GC [Compound 50] | 33% |
| 1-Methylcarbamoyloxy-10-benzyloxy-GC [Compound 39] | NI (Inhibition below 20% is characterized as no inhibition (NI)) |
| 1-(Piperidine-carbonyloxy)-10-benzyloxy-GC [Compound 42] | 31% |
| 1-(Piperidine-carbonyloxy)-10-(4-methoxy-benzyloxy)-GC [Compound 52] | NI (Inhibition below 20% is characterized as no inhibition (NI)) |
| 7-(Morpholine-4-carbonyloxy)-10-(4-methoxy-benzyloxy)-GC [Compound 46] | NI (Inhibition below 20% is characterized as no inhibition (NI)) |
| 1-tert-Butylcarbamoyloxy-10-benzyloxy-GC [Compound 40] | 42% |
| 7-(Piperidine-carbonyloxy)-10-(4-methoxy-benzyloxy)-GC [Compound 47] | 29% |
| 7-(Morpholine-4-carbonyloxy)-10-benzyloxy-GC [Compound 36] | NI (Inhibition below 20% is characterized as no inhibition (NI)) |
| 1-Methylcarbamoyloxy-10-(4-methoxy-benzyloxy)-GC [Compound 49] | NI (Inhibition below 20% is characterized as no inhibition (NI)) |
| 7-(Piperidine-carbonyloxy)-10-benzyloxy-GC [Compound 37] | NI (Inhibition below 20% is characterized as no inhibition (NI)) |

Same assay, conditions: 100 μM test compound; 100 μM glycine-induced response; α1 GlyR-HEK293 cells; Table 3

| Substance | % inhibition |
| --- | --- |
| 1-(Morpholine-4-carbonyloxy)-GC [Compound 59] | NI (Inhibition below 20% is characterized as no inhibition (NI)) |
| 7-(Piperidine-carbonyloxy)-GC [Compound 56] | 34% |
| 1-tert-Butylcarbamoyloxy-GC [Compound 58] | 71% |
| 1-(Piperidine-carbonyloxy)-GC [Compound 60] | 33% |
| 7-tert-Butylcarbamoyloxy-GC [Compound 54] | NI (Inhibition below 20% is characterized as no inhibition (NI)) |
| 7-Methylcarbamoyloxy-GC [Compound 53] | NI (Inhibition below 20% is characterized as no inhibition (NI)) |
| 7-(Morpholine-4-carbonyloxy)-GC [Compound 55] | 44% |
| 1-Methylcarbamoyloxy-GC [Compound 57] | 76% |

Same assay, conditions: 100 μM test compound; 100 μM glycine-induced response; α1 GlyR-HEK293 cells; Table 4

| % inhibition | Substance |
| --- | --- |
| 35% | 10-(4-Methoxy-benzyloxy)-GC-7-benzoate [Compound 26] |
| 60% | 10-Benzyloxy-GC-1-benzoate [Compound 23] |
| 51% | 10-(2-Pyridinyl-methoxy)-GC-7-benzoate [Compound 29] |
| 52% | 10-(4-Methoxy-benzyloxy)-GC [Compound 24] |
| 75% | 10-(2-Pyridinyl-methoxy)-GC [Compound 25] |
| 45% | 10-Benzyloxy-GC-7-benzoate [Compound 21] |

| Substance | % inhibition |
| --- | --- |
| GC-1-benzoate [Compound 32] | NI (Inhibition below 20% is characterized as no inhibition (NI)) |
| 10-Benzyloxy-GC [Compound 16] | 59% |
| GC-7-benzoate [Compound 30] | NI (Inhibition below 20% is characterized as no inhibition (NI)) |
| 10-(4-Methoxy-benzyloxy)-GC-1-benzoate [Compound 28] | NI (Inhibition below 20% is characterized as no inhibition (NI)) |

Same assay, conditions: 100 μM test compound; response induced by 100 μM glycine; α1 GlyR-HEK293 cells; Table 5

| % inhibition [%] | Substance |
| --- | --- |
| 90 | 10-Benzyloxy-isoGC-6-benzoate [Compound 17] |
| 49 | 10-(4-Methoxy-benzyloxy)-isoGC-6-benzoate [Compound 27] |
| 21 | 10-Benzyloxy-isoGC-1,6-bisacetate [Compound 19] |
| 42 | 10-Benzyloxy-isoGC-1,6-bisbenzoate [Compound 22] |
| 36 | 10-(4-Methoxy-benzyloxy)-isoGC-1,6-bisacetate [Compound 20] |
| 63 | IsoGC-6-benzoate [Compound 31] |

Same assay, conditions: derivatives as printed

| Substance | antagonist activity at GlyR (in words) |
| --- | --- |
| GC-1-benzoate [Compound 32] | complete loss in activity |
| GC-7-benzoate [Compound 30] | complete loss in activity |

Same assay, conditions: derivatives at a concentration of 100 mM; 100 mM glycine

| inhibition of the glycine responses | Substance |
| --- | --- |
| 90% | 10-Benzyloxy-isoGC-6-benzoate [Compound 17] |
| ca. 70% | 1-tert-Butylcarbamoyloxy-GC [Compound 58] |
| 75% | 10-(2-Pyridinyl-methoxy)-GC [Compound 25] |
| ca. 70% | 1-Methylcarbamoyloxy-GC [Compound 57] |

From patent US7429670B2 (The Trustees of Columbia University in the City of New York, priority 2003, dated 2008)
